3 compounds from patent US12275731B2, “Azaindole inhibitors of wild-type and mutant forms of LRRK2” (DANA-FARBER CANCER INSTITUTE, INC., priority 2018, dated 2025) can be followed below.

Each structure is given as a SMILES string.

Holding throughout (experiment): KinomeScan profiling
Assay type in all cases: binding

One experiment concerns the target MKNK2 (Homo sapiens, UniProt Q9HBH9). The note with it: MKNK2, 1 μM; read-out: % control. The method, boiled down: (§1)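 The panel spans 468 kinases, and each inventive compound was applied at 1 μM from DMSO. Lower % control means stronger binding; the activity cut-off is set at less than 35%.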
The next experiment deals with PRP4 (Homo sapiens, UniProt Q13523). The note with it: PRP4, 1 μM; read-out: % control. The method, boiled down: as §1
Experiment [1] has as its target T1, RSK4(Kin.Dom.1-N-terminal) (Homo sapiens, UniProt Q9UK32).
T1 construct: ribosomal S6 Kinase 4 (RSK4)(Kin.Dom.1-N-terminal)
The note with it: read-out: % control. Summed up: as §1

Another experiment has as its target CDK11 (Homo sapiens, UniProt Q9BWU1). The conditions noted are these: CDK11, 1 μM; read-out: % control. Summed up: as §1
Experiment [2] concerns the target T2, ABL1(Q252H)-phosphorylated (Homo sapiens, UniProt P00519, Q252H).
T2 construct: purchased KinomeScan®
The note with it: read-out: % control. Summed up:
as §1

The target of a further experiment is EGFR(L747-T751del, Sins) (Homo sapiens, UniProt P00533, DEL747-750/T751S). The note with it: read-out: % control. Summed up:
as §1

A further experiment has as its target YSK1 (Homo sapiens, UniProt O00506). The conditions noted are these: YSK1, 1 μM; read-out: % control. Summed up: as §1
The target of the next experiment is T3, SNARK (Homo sapiens, UniProt Q9H093).
T3 construct: purchased KinomeScan® (panel service)
T3 sequence (Q9H093 1-628): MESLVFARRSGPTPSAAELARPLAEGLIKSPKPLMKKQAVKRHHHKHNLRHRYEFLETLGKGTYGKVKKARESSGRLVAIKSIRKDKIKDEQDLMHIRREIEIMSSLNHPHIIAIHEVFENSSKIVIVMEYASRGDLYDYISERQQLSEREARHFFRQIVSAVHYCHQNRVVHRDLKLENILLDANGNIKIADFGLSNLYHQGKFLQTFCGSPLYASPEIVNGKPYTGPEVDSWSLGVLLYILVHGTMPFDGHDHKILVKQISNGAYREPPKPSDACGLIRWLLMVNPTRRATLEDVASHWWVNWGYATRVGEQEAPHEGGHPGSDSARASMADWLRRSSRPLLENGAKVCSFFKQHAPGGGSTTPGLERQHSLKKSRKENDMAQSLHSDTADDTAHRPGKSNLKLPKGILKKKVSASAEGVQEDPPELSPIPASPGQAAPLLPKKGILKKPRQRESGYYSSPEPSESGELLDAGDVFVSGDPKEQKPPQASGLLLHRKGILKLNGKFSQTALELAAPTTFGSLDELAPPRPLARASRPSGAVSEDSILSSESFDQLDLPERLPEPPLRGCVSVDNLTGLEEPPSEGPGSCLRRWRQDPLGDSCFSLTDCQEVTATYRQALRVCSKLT
The note with it: read-out: % control. Summed up: as §1

A further experiment deals with CAMK2G (Homo sapiens, UniProt Q13555). The note with it: read-out: % control. The method, boiled down: as §1
The next experiment deals with T4, RIOK3 (Homo sapiens, UniProt O14730).
T4 sequence (O14730 1-519): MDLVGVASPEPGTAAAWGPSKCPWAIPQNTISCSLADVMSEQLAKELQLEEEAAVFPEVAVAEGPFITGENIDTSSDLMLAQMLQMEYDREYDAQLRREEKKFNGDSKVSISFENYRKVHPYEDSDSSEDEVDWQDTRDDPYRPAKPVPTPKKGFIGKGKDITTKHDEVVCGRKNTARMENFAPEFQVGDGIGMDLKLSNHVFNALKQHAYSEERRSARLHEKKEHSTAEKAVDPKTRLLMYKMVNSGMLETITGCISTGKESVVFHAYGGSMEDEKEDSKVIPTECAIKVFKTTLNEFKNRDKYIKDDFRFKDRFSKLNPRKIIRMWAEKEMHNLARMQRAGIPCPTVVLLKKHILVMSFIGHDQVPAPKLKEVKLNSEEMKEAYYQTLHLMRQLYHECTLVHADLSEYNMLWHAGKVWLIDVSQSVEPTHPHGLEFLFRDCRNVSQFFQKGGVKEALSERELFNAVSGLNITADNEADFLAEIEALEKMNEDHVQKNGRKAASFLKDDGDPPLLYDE
The note with it: RIOK3, 1 μM; read-out: % control. Summed up: as §1

Another experiment addresses T5, PIP5K1A (Homo sapiens, UniProt Q99755).
T5 construct: purchased KinomeScan® (panel service)
The note with it: read-out: % control. The method, boiled down: as §1

The next experiment has as its target ERBB2 (Homo sapiens, UniProt P04626). The conditions noted are these: ERBB2, 1 μM; read-out: % control. Summed up: as §1
In the next experiment the target is MYLK2 (Homo sapiens, UniProt Q9H1R3). The note with it: MYLK2, 1 μM; read-out: % control. Summed up: as §1
The next experiment concerns the target MRCKA (Homo sapiens, UniProt Q5VT25). The conditions noted are these: read-out: % control. The method, boiled down:
as §1

Sequence of YSK1 (O00506 whole entry): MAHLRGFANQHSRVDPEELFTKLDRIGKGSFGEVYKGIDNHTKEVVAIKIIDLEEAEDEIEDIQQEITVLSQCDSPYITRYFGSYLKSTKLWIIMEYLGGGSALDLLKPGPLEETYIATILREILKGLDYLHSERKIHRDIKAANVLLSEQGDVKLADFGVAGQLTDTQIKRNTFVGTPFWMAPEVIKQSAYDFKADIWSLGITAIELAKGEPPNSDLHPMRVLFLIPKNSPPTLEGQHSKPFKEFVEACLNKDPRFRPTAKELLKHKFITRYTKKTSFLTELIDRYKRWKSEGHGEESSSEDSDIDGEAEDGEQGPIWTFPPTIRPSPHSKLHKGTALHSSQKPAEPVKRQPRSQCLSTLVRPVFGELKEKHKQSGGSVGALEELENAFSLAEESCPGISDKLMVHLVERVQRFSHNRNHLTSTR
Sequence of MKNK2 (Q9HBH9 whole entry): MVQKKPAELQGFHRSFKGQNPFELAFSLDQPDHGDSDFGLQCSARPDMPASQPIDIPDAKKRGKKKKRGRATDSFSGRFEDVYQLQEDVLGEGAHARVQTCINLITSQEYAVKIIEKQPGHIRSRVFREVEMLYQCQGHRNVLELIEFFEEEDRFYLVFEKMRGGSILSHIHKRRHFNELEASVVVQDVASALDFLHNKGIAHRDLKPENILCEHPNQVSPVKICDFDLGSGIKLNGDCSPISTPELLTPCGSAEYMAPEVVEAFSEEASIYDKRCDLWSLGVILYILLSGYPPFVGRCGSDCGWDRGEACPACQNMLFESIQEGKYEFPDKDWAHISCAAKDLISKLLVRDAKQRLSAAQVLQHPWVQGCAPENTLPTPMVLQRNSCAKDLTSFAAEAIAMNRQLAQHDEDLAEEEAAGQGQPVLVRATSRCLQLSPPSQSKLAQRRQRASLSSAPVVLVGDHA
Sequence of CDK11 (Q9BWU1 whole entry): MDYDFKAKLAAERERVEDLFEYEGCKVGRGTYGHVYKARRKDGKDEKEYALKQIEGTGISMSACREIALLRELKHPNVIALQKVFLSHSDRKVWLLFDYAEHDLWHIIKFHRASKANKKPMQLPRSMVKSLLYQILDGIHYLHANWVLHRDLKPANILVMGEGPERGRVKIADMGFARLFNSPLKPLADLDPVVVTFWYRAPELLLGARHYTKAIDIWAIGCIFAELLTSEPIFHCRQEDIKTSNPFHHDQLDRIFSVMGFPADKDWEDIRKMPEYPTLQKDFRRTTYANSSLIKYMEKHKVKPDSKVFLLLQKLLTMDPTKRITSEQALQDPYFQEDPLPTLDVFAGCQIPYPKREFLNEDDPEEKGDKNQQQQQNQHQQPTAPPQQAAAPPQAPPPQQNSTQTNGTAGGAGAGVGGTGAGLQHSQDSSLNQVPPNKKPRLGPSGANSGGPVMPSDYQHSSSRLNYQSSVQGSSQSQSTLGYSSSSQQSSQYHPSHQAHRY
Sequence of PRP4 (Q13523 whole entry): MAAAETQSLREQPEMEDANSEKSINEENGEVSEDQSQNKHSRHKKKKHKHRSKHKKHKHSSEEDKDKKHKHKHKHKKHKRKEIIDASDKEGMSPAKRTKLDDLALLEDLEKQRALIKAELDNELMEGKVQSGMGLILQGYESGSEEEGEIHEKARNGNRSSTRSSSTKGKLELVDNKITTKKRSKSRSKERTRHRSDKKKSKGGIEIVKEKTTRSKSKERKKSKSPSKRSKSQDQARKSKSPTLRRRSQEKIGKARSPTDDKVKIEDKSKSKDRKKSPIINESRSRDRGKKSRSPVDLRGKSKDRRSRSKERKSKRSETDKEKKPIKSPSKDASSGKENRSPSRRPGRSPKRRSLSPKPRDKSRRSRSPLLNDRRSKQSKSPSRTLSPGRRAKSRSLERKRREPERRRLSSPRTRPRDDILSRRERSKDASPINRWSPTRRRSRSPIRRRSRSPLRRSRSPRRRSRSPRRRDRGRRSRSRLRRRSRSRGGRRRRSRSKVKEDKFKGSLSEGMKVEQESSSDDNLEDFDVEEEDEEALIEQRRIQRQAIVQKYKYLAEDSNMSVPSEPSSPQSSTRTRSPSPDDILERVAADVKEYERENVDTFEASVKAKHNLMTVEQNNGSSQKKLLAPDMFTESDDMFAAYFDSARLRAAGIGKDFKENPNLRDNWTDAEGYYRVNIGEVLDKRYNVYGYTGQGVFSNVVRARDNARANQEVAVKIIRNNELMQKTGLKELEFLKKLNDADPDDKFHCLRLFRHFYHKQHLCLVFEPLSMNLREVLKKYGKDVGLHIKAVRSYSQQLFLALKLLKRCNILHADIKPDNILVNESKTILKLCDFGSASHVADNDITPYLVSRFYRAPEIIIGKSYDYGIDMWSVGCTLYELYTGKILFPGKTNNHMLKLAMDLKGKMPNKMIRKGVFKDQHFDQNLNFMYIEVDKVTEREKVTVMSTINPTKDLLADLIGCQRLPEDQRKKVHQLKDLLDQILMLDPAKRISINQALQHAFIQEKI
Sequence of EGFR(L747-T751del, Sins) (P00533 with tags, fused parts or gaps DEL747-750/T751S limits assumed): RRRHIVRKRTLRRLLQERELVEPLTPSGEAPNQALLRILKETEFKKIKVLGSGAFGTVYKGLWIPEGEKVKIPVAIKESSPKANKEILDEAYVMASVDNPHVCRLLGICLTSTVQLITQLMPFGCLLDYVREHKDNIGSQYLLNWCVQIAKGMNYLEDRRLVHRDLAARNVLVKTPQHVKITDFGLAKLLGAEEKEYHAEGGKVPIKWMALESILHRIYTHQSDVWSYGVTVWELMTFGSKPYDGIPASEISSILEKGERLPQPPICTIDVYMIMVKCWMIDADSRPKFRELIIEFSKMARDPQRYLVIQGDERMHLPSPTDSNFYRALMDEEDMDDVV
T1 sequence (Q9UK32 73-330 limits assumed): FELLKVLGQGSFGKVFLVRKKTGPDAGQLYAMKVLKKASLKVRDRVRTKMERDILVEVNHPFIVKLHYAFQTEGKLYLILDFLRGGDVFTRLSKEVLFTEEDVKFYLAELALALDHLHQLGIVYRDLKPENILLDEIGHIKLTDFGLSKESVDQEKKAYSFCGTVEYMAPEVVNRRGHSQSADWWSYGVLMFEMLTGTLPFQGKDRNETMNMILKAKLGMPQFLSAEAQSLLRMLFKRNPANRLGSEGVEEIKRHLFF
T5 sequence (Q99755 whole entry): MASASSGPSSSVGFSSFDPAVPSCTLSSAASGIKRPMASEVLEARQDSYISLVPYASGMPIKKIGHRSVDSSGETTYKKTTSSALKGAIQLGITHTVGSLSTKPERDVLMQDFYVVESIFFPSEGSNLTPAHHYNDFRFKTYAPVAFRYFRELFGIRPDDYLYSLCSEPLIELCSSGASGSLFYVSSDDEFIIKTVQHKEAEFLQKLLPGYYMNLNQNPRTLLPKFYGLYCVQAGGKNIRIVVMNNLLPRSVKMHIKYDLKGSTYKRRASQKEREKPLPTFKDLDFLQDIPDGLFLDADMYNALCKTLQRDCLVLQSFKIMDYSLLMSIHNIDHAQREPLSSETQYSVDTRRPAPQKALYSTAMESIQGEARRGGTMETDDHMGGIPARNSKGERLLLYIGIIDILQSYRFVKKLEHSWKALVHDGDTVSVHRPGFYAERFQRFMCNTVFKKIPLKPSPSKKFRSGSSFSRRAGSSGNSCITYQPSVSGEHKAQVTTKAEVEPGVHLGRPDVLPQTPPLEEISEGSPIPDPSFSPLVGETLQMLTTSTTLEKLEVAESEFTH
Sequence of ERBB2 (P04626 23-1255): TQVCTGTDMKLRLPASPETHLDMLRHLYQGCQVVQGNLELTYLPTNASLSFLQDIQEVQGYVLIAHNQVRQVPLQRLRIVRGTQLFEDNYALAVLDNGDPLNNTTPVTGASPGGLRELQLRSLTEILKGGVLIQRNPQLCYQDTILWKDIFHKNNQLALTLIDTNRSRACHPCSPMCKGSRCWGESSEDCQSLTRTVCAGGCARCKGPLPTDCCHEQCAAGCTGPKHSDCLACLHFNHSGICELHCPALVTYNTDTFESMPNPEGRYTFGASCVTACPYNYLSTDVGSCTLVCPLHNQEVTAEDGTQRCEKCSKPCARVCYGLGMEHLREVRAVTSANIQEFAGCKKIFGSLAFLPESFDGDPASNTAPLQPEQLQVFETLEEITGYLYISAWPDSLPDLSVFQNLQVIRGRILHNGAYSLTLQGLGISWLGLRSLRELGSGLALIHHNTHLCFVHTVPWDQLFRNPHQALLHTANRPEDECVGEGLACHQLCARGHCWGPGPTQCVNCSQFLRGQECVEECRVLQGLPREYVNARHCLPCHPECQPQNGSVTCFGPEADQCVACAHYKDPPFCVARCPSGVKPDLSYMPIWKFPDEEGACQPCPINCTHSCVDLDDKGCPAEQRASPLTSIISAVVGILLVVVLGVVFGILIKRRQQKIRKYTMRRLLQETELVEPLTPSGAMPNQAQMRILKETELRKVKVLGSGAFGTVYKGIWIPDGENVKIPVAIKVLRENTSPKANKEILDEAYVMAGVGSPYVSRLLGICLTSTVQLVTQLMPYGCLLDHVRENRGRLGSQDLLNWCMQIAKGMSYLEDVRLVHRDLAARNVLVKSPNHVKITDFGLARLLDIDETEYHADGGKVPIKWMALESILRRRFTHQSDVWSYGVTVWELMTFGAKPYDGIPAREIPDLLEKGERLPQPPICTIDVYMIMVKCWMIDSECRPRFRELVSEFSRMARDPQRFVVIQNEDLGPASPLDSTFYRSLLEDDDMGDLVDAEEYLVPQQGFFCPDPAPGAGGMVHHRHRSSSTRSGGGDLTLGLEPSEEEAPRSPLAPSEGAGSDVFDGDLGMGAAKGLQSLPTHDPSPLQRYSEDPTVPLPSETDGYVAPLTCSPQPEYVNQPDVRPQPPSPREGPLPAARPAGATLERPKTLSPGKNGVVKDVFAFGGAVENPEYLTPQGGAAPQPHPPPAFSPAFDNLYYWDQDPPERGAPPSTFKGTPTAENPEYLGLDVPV

In the case of `CNc1c(-c2ccc(C(=O)N3CCC(N4CCOCC4)CC3)cc2)cnc2[nH]cc(Cl)c12` [Compound 96, (4-(3-chloro-4-(methylamino)-1H-pyrrolo[2,3-b]pyridin-5-yl)phenyl)(4-morpholinopiperidin-1-yl)methanone], the remaining binding at 1 µM at MKNK2 amounted to 22%; at PRP4, 47%; in experiment [1] it was 77%; at CDK11, 68%; in experiment [2] it was 100%; at EGFR(L747-T751del, Sins), 76%. For the same compound, the remaining binding at 1 µM on YSK1 stood at 97%; at SNARK, 64%; on CAMK2G it was 95%; on RIOK3, 36%; on PIP5K1A it was 16%; at ERBB2 it was 80%. Besides, the remaining binding at 1 µM was 51% at MYLK2 and 100% on MRCKA.
As for `O=C(c1ccc(-c2cnc3[nH]cc(Cl)c3c2NC2CCCC2)cc1)N1CCC(N2CCOCC2)CC1` [Compound 101, (4-(3-chloro-4-(cyclopentylamino)-1H-pyrrolo[2,3-b]pyridin-5-yl)phenyl)(4-morpholinopiperidin-1-yl)methanone], the remaining binding at 1 µM turned out to be 94% at MKNK2; 38% on PRP4; 100% in experiment [1]; 35% on CDK11; 100% in experiment [2]; 100% at EGFR(L747-T751del, Sins). Also, the remaining binding at 1 µM at YSK1 worked out at 100%; at SNARK, 33%; at CAMK2G, 96%; at RIOK3 it was 50%; at PIP5K1A it was 12%; at ERBB2 it was 92%. In addition, the figures for the remaining binding at 1 µM at MYLK2 and at MRCKA were 94% and 100%, respectively.
For `CNc1c(-c2cnn([C@H]3CCN(C(C)=O)C[C@@H]3F)c2)cnc2[nH]cc(Cl)c12` [Compound 77, 1-((3S,4S)-4-(4-(3-chloro-4-(methylamino)-1H-pyrrolo[2,3-b]pyridin-5-yl)-1H-pyrazol-1-yl)-3-fluoropiperidin-1-yl)ethan-1-one], the remaining binding at 1 µM at MKNK2 amounted to 56%; on PRP4 it was 14%; in [1] it was 32%; at CDK11, 96%; in [2], 95%; on EGFR(L747-T751del, Sins), 88%. The remaining binding at 1 µM on YSK1 was found to be 84%; on SNARK it was 96%; at CAMK2G, 90%; on RIOK3, 24%; at PIP5K1A it was 7.7%; on ERBB2, 63%. The remaining binding at 1 µM at MYLK2 turned out to be 79%; on MRCKA, 100%.
